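Following 48 hours of exposure in 96-well plates, responses at five concentrations were used to interpolate endpoints linearly. Definition used: TGI = concentration required for complete inhibition of growth.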
How the values were obtained:
Assay in all cases: NCI anticancer screen, dose series, 48 h
OVCAR-3 ovarian = tested on: OVCAR-3 ovarian
SF-539 CNS = tested on: SF-539 CNS
UO-31 renal = tested on: UO-31 renal
OVCAR-8 ovarian = tested on: OVCAR-8 ovarian
HOP-92 NSCLC = tested on: HOP-92 NSCLC
M14 melanoma = tested on: M14 melanoma
COLO 205 colon = tested on: COLO 205 colon
SF-268 CNS = tested on: SF-268 CNS
786-0 renal = tested on: 786-0 renal
A498 renal = tested on: A498 renal
UACC-62 melanoma = tested on: UACC-62 melanoma
SR leukemia = tested on: SR leukemia
U251 CNS = tested on: U251 CNS
NCI-H23 lung = tested on: NCI-H23 lung
EKVX NSCLC = tested on: EKVX NSCLC
MDA-N = tested on: MDA-N
T-47D breast = tested on: T-47D breast
BT-549 breast = tested on: BT-549 breast
HCT-116 colon = tested on: HCT-116 colon
SNB-19 CNS = tested on: SNB-19 CNS
MDA-MB-435 = tested on: MDA-MB-435
SK-OV-3 ovarian = tested on: SK-OV-3 ovarian
IGROV1 ovarian = tested on: IGROV1 ovarian
DU-145 prostate = tested on: DU-145 prostate
TK-10 renal = tested on: TK-10 renal
SNB-75 CNS = tested on: SNB-75 CNS
OVCAR-4 ovarian = tested on: OVCAR-4 ovarian
MALME-3M melanoma = tested on: MALME-3M melanoma
SF-295 CNS = tested on: SF-295 CNS
K-562 leukemia = tested on: K-562 leukemia
SN12C renal = tested on: SN12C renal
HS 578T breast = tested on: HS 578T breast
SK-MEL-5 melanoma = tested on: SK-MEL-5 melanoma
UACC-257 melanoma = tested on: UACC-257 melanoma
HCT-15 colon = tested on: HCT-15 colon
NCI-H226 lung = tested on: NCI-H226 lung
HT29 colon = tested on: HT29 colon
RPMI-8226 leukemia = tested on: RPMI-8226 leukemia
SW-620 colon = tested on: SW-620 colon
NCI-H522 lung = tested on: NCI-H522 lung
MOLT-4 leukemia = tested on: MOLT-4 leukemia
RXF 393 renal = tested on: RXF 393 renal
A549 NSCLC = tested on: A549 NSCLC
NCI/ADR-RES ovarian = tested on: NCI/ADR-RES ovarian
OVCAR-5 ovarian = tested on: OVCAR-5 ovarian
KM12 colon = tested on: KM12 colon
CCRF-CEM leukemia = tested on: CCRF-CEM leukemia
ACHN renal = tested on: ACHN renal
MCF7 breast = tested on: MCF7 breast
HOP-62 NSCLC = tested on: HOP-62 NSCLC
LOX IMVI melanoma = tested on: LOX IMVI melanoma
HL-60(TB) leukemia = tested on: HL-60(TB) leukemia
HCC-2998 colon = tested on: HCC-2998 colon
MDA-MB-231 breast = tested on: MDA-MB-231 breast
CAKI-1 renal = tested on: CAKI-1 renal
SK-MEL-2 melanoma = tested on: SK-MEL-2 melanoma
NCI-H460 lung = tested on: NCI-H460 lung
PC-3 prostate = tested on: PC-3 prostate
SK-MEL-28 melanoma = tested on: SK-MEL-28 melanoma

In the case of `Cn1c(=O)c2c3ccccc3n(C)c2n(C)c1=O`, the TGI (OVCAR-3 ovarian) is reported as > 100 µM, the TGI (SF-539 CNS) is reported as > 100 µM and the TGI (UO-31 renal) is reported as > 100 µM. The TGI (OVCAR-8 ovarian) was > 100 µM, the TGI (HOP-92 NSCLC) was > 100 µM and the TGI (M14 melanoma) was > 100 µM. The TGI (COLO 205 colon) was > 100 µM, the TGI (SF-268 CNS) was > 100 µM and the TGI (786-0 renal) was > 100 µM. The TGI (A498 renal) was > 100 µM, the TGI (UACC-62 melanoma) was > 100 µM and the TGI (SR leukemia) was > 100 µM. The TGI (U251 CNS) was > 100 µM, the TGI (NCI-H23 lung) was > 100 µM and the TGI (EKVX NSCLC) was > 100 µM. The TGI (MDA-N) was > 100 µM, the TGI (T-47D breast) was > 100 µM and the TGI (BT-549 breast) was > 100 µM. For the same compound, the TGI (HCT-116 colon) was > 100 µM, the TGI (SNB-19 CNS) was > 100 µM and the TGI (MDA-MB-435) was > 100 µM. The TGI (SK-OV-3 ovarian) was 83.9 µM, the TGI (IGROV1 ovarian) was > 100 µM and the TGI (DU-145 prostate) was > 100 µM. For the same compound, the TGI (TK-10 renal) was > 100 µM, the TGI (SNB-75 CNS) was > 100 µM and the TGI (OVCAR-4 ovarian) was > 100 µM. For the same compound, the TGI (MALME-3M melanoma) was > 100 µM, the TGI (SF-295 CNS) was > 100 µM and the TGI (K-562 leukemia) was > 100 µM. For the same compound, the TGI (SN12C renal) was > 100 µM, the TGI (HS 578T breast) was > 100 µM and the TGI (SK-MEL-5 melanoma) was > 100 µM. For the same compound, the TGI (UACC-257 melanoma) was > 100 µM, the TGI (HCT-15 colon) was > 100 µM and the TGI (NCI-H226 lung) was > 100 µM. The TGI (HT29 colon) was > 100 µM, the TGI (RPMI-8226 leukemia) was > 100 µM and the TGI (SW-620 colon) was > 100 µM. The TGI (NCI-H522 lung) was > 100 µM, the TGI (MOLT-4 leukemia) was > 100 µM and the TGI (RXF 393 renal) was > 100 µM. For the same compound, the TGI (A549 NSCLC) was > 100 µM, the TGI (NCI/ADR-RES ovarian) was > 100 µM and the TGI (OVCAR-5 ovarian) was > 100 µM. The TGI (KM12 colon) was > 100 µM, the TGI (CCRF-CEM leukemia) was > 100 µM and the TGI (ACHN renal) was > 100 µM. For the same compound, the TGI (MCF7 breast) was > 100 µM, the TGI (HOP-62 NSCLC) was > 100 µM and the TGI (LOX IMVI melanoma) was > 100 µM. The TGI (HL-60(TB) leukemia) was > 100 µM, the TGI (HCC-2998 colon) was > 100 µM and the TGI (MDA-MB-231 breast) was > 100 µM. The TGI (CAKI-1 renal) was > 100 µM and the TGI (SK-MEL-2 melanoma) was > 100 µM.
Work on `CN(C)CCCN1c2ccc([N+](=O)[O-])cc2CCc2cccc([N+](=O)[O-])c21` yielded a TGI (OVCAR-3 ovarian) of 28.8 µM, a TGI (NCI-H460 lung) of 29.2 µM and a TGI (SF-539 CNS) of 31.5 µM. It also gave a TGI (OVCAR-8 ovarian) of 32.3 µM, a TGI (HOP-92 NSCLC) of 26.8 µM and a TGI (M14 melanoma) of 28 µM. It also gave a TGI (COLO 205 colon) of 28.6 µM, a TGI (SF-268 CNS) of 29 µM and a TGI (786-0 renal) of 26.5 µM. The TGI (UACC-62 melanoma) was 10.4 µM, the TGI (SR leukemia) was > 100 µM and the TGI (U251 CNS) was 29.3 µM. The TGI (NCI-H23 lung) was 31.2 µM, the TGI (EKVX NSCLC) was 39.1 µM and the TGI (MDA-N) was 29.2 µM. The TGI (T-47D breast) was 37.2 µM, the TGI (HCT-116 colon) was 27.3 µM and the TGI (SNB-19 CNS) was 36.1 µM. For the same compound, the TGI (MDA-MB-435) was 27.7 µM, the TGI (PC-3 prostate) was 42.8 µM and the TGI (SK-OV-3 ovarian) was 30.8 µM. The TGI (IGROV1 ovarian) was 29.7 µM, the TGI (DU-145 prostate) was 31.2 µM and the TGI (TK-10 renal) was 23.2 µM. The TGI (SNB-75 CNS) was 26.5 µM, the TGI (OVCAR-4 ovarian) was 13.9 µM and the TGI (MALME-3M melanoma) was 28 µM. The TGI (SF-295 CNS) was 28.2 µM, the TGI (K-562 leukemia) was 52 µM and the TGI (SN12C renal) was 28.6 µM. For the same compound, the TGI (HS 578T breast) was 31.7 µM, the TGI (SK-MEL-5 melanoma) was 30.2 µM and the TGI (UACC-257 melanoma) was 27.6 µM. The TGI (HCT-15 colon) was 30.5 µM, the TGI (NCI-H226 lung) was 29.3 µM and the TGI (HT29 colon) was 32.5 µM. The TGI (RPMI-8226 leukemia) was 98.7 µM, the TGI (SW-620 colon) was 39.5 µM and the TGI (SK-MEL-28 melanoma) was 30.1 µM. For the same compound, the TGI (NCI-H522 lung) was 32.1 µM, the TGI (MOLT-4 leukemia) was 51.5 µM and the TGI (RXF 393 renal) was 22.8 µM. For the same compound, the TGI (A549 NSCLC) was 29.5 µM, the TGI (NCI/ADR-RES ovarian) was 30.4 µM and the TGI (OVCAR-5 ovarian) was 33.3 µM. The TGI (KM12 colon) was 28.9 µM, the TGI (CCRF-CEM leukemia) was 46.4 µM and the TGI (ACHN renal) was 31.5 µM. It also gave a TGI (HOP-62 NSCLC) of 27 µM, a TGI (LOX IMVI melanoma) of 31.8 µM and a TGI (HL-60(TB) leukemia) of 37 µM. For the same compound, the TGI (HCC-2998 colon) was 26.3 µM, the TGI (MDA-MB-231 breast) was 26.1 µM and the TGI (SK-MEL-2 melanoma) was 33.5 µM.

Reference: PubChem BioAssay (NCI)
